Legend:
[1] = target: T1, ErbB2 or EGFR; test: ErbB enzyme substrate phosphorylation assay (HTRF), Method B (enzyme pre-incubated with compound 1 hour); assay type: biochemical; conditions: Table 1, enzyme Method B: enzyme mix incubated with compound 1 hour at 20° C., reaction started with substrate mix; class over ErbB2 or EGFR
T1 construct: enzymes purified from a baculovirus expression system
Procedure, shortened: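 Baculovirus-expressed kinase (0.8 nM EGFR or 10 nM ErbB2 in enzyme mix) phosphorylated biotinylated Peptide C (0.8 µM in substrate mix) with 20 µM ATP in substrate mix, MOPS pH 7.5, MnCl2, 90 min at 20 °C. Method A started with enzyme; Method B pre-incubated enzyme with compound 1 h at 20 °C. HTRF read-out; IC50 from 12-point curve (0.00027–47.6 µM), reported as pIC50.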

[2] = tested on: BT474 and HN5 tumor cell lines; test: Methylene blue growth inhibition assay (cellular Method A); assay type: cell-based; conditions: Homo sapiens, BT-474 and HN5, 72 h; Table 2, Method A methylene blue, 3 days; class over BT474 and HN5;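 also: class counts the more potent of the two cell lines (BT474 or HN5)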
Method: (§1) Human breast (BT474) and head and neck (HN5) were cultured in low glucose DMEM (Life Technologies 12320-032) containing 10% fetal bovine serum (FBS). Human colon tumor cells (Colo205) were cultured in DMEM (Invitrogen, 10564) containing 10% FBS. The SV40 transformed human mammary epithelial cell line to HB4a was transfected with either human H-ras cDNA (HB4a r4.2) or the human c-ErbB2 cDNA (HB4a c5.2). The HB4a clones were cultured in RPMI containing 10% FBS, insulin ([…]), hydrocortisone ([…]), supplemented with the selection agent hygromycin B ([…]). All lines were grown in a humidified incubator at 37° C. in 95% air, 5% CO2. Cells were harvested using trypsin/EDTA, counted using a haemocytometer, and plated in 100 microliters of the appropriate media, at the following densities, in a 96-well tissue culture plate (Falcon 3075): BT474 10,000 cells/well, HN5 3,000 cells/well. The next day, compounds were diluted in DMEM containing […] gentamicin, at twice the final required concentration, from 10 mM stock solutions in DMSO. 100 microliters/well of these dilutions were added to the 100 microliters of media currently on the cell plates. Medium containing 0.6% DMSO was added to control wells. Compounds diluted in DMEM were added to all cell lines. The final concentration of DMSO in all wells was 0.3%. Cells were returned to the incubator (37° C., […]) for 3 days. Medium was then removed by aspiration. Cell biomass was estimated by staining cells with 90 microliters per well methylene blue (Sigma M9140, 0.5% in 1:1 ethanol:water), and incubation at rt for at least 30 minutes. Stain was removed, and the plates rinsed by immersion in deionized water and air-dried. To release stain from the cells 100 microliters of solubilization solution was added (1% N-lauroyl sarcosine, Sodium salt, Sigma L5125, in PBS), and plates were shaken gently for about 30 minutes. Optical density at 620 nm was measured on a microplate reader. Percent inhibition of cell growth was calculated relative to vehicle treated control wells. Concentration of compound that inhibits 50% of control cell growth (IC50) was interpolated using nonlinear regression (Levenberg-Marquardt) and the equation, y=Vmax*(1−(x/(K+x)))+Y2, where “K” was equal to the IC50. Method B: Celltiter Glo® Growth Inhibition Assays

[3] = tested on: Colo205 tumor cell lines; test: as above; assay type: cell-based; conditions: Homo sapiens, COLO 205, 72 h, Table 3, Method A methylene blue, 3 days
Method: as §1

| SMILES | Activity (Method) [1] | IC50 [2] [nM] | IC50 [3] [nM] |
| --- | --- | --- | --- |
| CN(C)Cc1cccc(Nc2nccc(-c3c(-c4cccc(NC(=O)Cc5ccsc5)c4)nn4ccccc34)n2)c1 [Example 24, N-(3-{3-[2-({3-[(Dimethylamino)methyl]phenyl}-amino)-4-pyrimidinyl]pyrazolo[1,5-a]pyridin-2-yl}phenyl)-2-(3-thienyl)acetamide] | +++ (B) (at least one pIC50 measurement of greater than 7 against either ErbB2 or EGFR) | 100 to 1000 | 100 to 1000 |
| CN(C)Cc1cccc(Nc2nccc(-c3c(-c4cccc(NC(=O)Cc5c(F)cccc5F)c4)nn4ccccc34)n2)c1 [Example 25, 2-(2,6-Difluorophenyl)-N-(3-{3-[2-({3-[(dimethylamino)methyl]-phenyl}amino)-4-pyrimidinyl]pyrazolo[1,5-a]pyridin-2-yl}phenyl)acetamide] | ++ (B) (at least one pIC50 measurement greater than 6 against either ErbB2 or EGFR but no measurement greater than pIC50 of 7) | > 1000 | 100 to 1000 |
| CN(C)Cc1cccc(Nc2nccc(-c3c(-c4cccc(NC(=O)Cc5cccnc5)c4)nn4ccccc34)n2)c1 [Example 26, N-(3-{3-[2-({3-[(Dimethylamino)methyl]phenyl}amino)-4-pyrimidinyl]pyrazolo[1,5-a]pyridin-2-yl}phenyl)-2-(3-pyridinyl)acetamide] | ++ (B) (at least one pIC50 measurement greater than 6 against either ErbB2 or EGFR but no measurement greater than pIC50 of 7) | > 1000 | > 1000 |
| CN(C)Cc1cccc(Nc2nccc(-c3c(-c4cccc(NC(=O)Cc5ccccn5)c4)nn4ccccc34)n2)c1 [Example 27, N-(3-{3-[2-({3-[(Dimethylamino)methyl]phenyl}amino)-4-pyrimidinyl]pyrazolo[1,5-a]pyridin-2-yl}phenyl)-2-(2-pyridinyl)acetamide] | ++ (B) (at least one pIC50 measurement greater than 6 against either ErbB2 or EGFR but no measurement greater than pIC50 of 7) | > 1000 | > 1000 |
| Cc1cc(CC(=O)Nc2cccc(-c3nn4ccccc4c3-c3ccnc(Nc4cccc(CN(C)C)c4)n3)c2)on1 [Example 28, N-(3-{3-[2-({3-[(Dimethylamino)methyl]-phenyl}amino)-4-pyrimidinyl]pyrazolo[1,5-a]pyridin-2-yl}phenyl)-2-(3-methyl-5-isoxazolyl)acetamide] | +++ (B) (at least one pIC50 measurement of greater than 7 against either ErbB2 or EGFR) | > 1000 | > 1000 |
| Cc1sc(-c2ccccc2)nc1CC(=O)Nc1cccc(-c2nn3ccccc3c2-c2ccnc(Nc3cccc(CN(C)C)c3)n2)c1 [Example 29, N-(3-{3-[2-({3-[(Dimethylamino)methyl]phenyl}amino)-4-pyrimidinyl]pyrazolo[1,5-a]pyridin-2-yl}phenyl)-2-(5-methyl-2-phenyl-1,3-thiazol-4-yl)acetamide] | + (B) (no pIC50 measurement greater than 6 against either ErbB2 or EGFR) | > 1000 | > 1000 |
| CN(C)CCOc1cccc(Nc2nccc(-c3c(-c4cccc(NC(=O)Cc5ccsc5)c4)nn4ccccc34)n2)c1 [Example 39, N-[3-(3-{2-[(3-{[2-(dimethylamino)ethyl]oxy}phenyl)amino]-4-pyrimidinyl}pyrazolo[1,5-a]pyridin-2-yl)phenyl]-2-(3-thienyl)acetamide] | +++ (B) (at least one pIC50 measurement of greater than 7 against either ErbB2 or EGFR) | 100 to 1000 | 100 to 1000 |
| NCc1cccc(Nc2nccc(-c3c(-c4cccc(NC(=O)Cc5ccsc5)c4)nn4ccccc34)n2)c1 [Example 43, N-{3-[3-(2-{[3-(Aminomethyl)phenyl]amino}-4-pyrimidinyl)pyrazolo[1,5-a]pyridin-2-yl]phenyl}-2-(3-thienyl)acetamide] | +++ (B) (at least one pIC50 measurement of greater than 7 against either ErbB2 or EGFR) | 100 to 1000 | > 1000 |
| O=C(Cc1cccs1)Nc1cccc(-c2nn3ccccc3c2-c2ccnc(Nc3ccc(Cl)c(OCCN4CCCC4)c3)n2)c1 [Example 44, N-[3-(3-{2-[(4-chloro-3-{[2-(1-pyrrolidinyl)ethyl]oxy}phenyl)amino]-4-pyrimidinyl}pyrazolo[1,5-a]pyridin-2-yl)phenyl]-2-(2-thienyl)acetamide] | +++ (B) (at least one pIC50 measurement of greater than 7 against either ErbB2 or EGFR) | > 1000 | > 1000 |
| CN(C)CCOc1cc(Nc2nccc(-c3c(-c4cccc(NC(=O)Cc5cccs5)c4)nn4ccccc34)n2)ccc1Cl [Example 45] | ++ (B) (at least one pIC50 measurement greater than 6 against either ErbB2 or EGFR but no measurement greater than pIC50 of 7) | > 1000 | > 1000 |
| CN(C)C1Cc2ccc(Nc3nccc(-c4c(-c5cccc(NC(=O)Cc6cccs6)c5)nn5ccccc45)n3)cc2C1 (stereo not drawn) [Example 53, N-{3-[3-(2-{[2-(Dimethylamino)-2,3-dihydro-1H-inden-5-yl]amino}pyrimidin-4-yl)pyrazolo[1,5-a]pyridin-2-yl]phenyl}-2-(2-thienyl)acetamide] | +++ (B) (at least one pIC50 measurement of greater than 7 against either ErbB2 or EGFR) | 100 to 1000 | 100 to 1000 |
| NC1Cc2ccc(Nc3nccc(-c4c(-c5cccc(NC(=O)Cc6cccs6)c5)nn5ccccc45)n3)cc2C1 (stereo not drawn) [Example 54, N-[3-(3-{2-[(2-Amino-2,3-dihydro-1H-inden-5-yl)amino]-4-pyrimidinyl}pyrazolo[1,5-a]pyridin-2-yl)phenyl]-2-(2-thienyl)acetamide] | +++ (B) (at least one pIC50 measurement of greater than 7 against either ErbB2 or EGFR) | < 100 | 100 to 1000 |
| NC1CCc2ccc(Nc3nccc(-c4c(-c5cccc(NC(=O)Cc6cccs6)c5)nn5ccccc45)n3)cc2C1 (stereo not drawn) [Example 55, N-[3-(3-{2-[(7-Amino-5,6,7,8-tetrahydro-2-naphthalenyl)amino]-4-pyrimidinyl}pyrazolo[1,5-a]pyridin-2-yl)phenyl]-2-(2-thienyl)acetamide] | +++ (B) (at least one pIC50 measurement of greater than 7 against either ErbB2 or EGFR) | 100 to 1000 | 100 to 1000 |

Reference: patent US7807673B2, “2-pyrimidinyl pyrazolopyridine ErbB kinase inhibitors” (GlaxoSmithKline LLC, priority 2005, dated 2010)
